Reference: US20200222474A1, “COMPOSITIONS AND METHODS FOR INCREASING PHYTOCHEMICAL BIOAVAILABLITY AND BIOACTIVITY” (North Carolina State University, priority 2017, published 2020)

How the values were obtained:
NCK2422 (ΔLBA0725) = assay: Phenotypic growth analysis of deletion mutant (PTS EIICBA); assay type: cell-based, Lactobacillus acidophilus; details: for growth of the ΔLBA0725 mutant (inactive PTS EIICBA): compared with background Δupp strain
Method: (§1) Phenotypic growth assays were performed using 1% (v/v) overnight cultures of L. acidophilus strains (Table 2) and other Lactobacillus species (Table 3) grown on SDM supplemented with 1% (w/v) glucose to inoculate 200 μL of SDM supplemented with 1% (w/v) of the examined carbohydrate (0.5% in the case of esculin) in 96-well microplate wells (Corning Costar, Corning, N.Y., USA) in duplicate or triplicate wells, respectively. The microplates were sealed with clear adhesive film, incubated at 37° C. in a Fluostar Optima microplate reader (BMG Labtech, Cary, N.C., USA), and the cell optical density (OD600) was monitored for 30 hours.
(§2) Construction of gene deletion mutants. The L. acidophilus NCFM genes LBA0225 and LBA0726, both encoding P-Bgl of glycoside hydrolase family 1 (GH1) enzymes in addition to the LBA0227 and LBA0725 genes encoding an EIIC and an EIICBA components of two PTS systems, respectively, were deleted using the upp-based counterselectable gene replacement system. Briefly, in-frame deletions were constructed by amplifying 650-750 bp of the up- and downstream flanking regions of the deletion targets with two primer pairs (e.g., LBA0225A/LBA0225B and LBA0225C/LBA0225D; Table 4). The resulting purified products were joined by splicing using overlap extension PCR (SOE-PCR63) and amplified to establish the deletion alleles. The SOE-PCR products, that include flanking restriction enzyme sites, were cloned within the BamHI and SacI/EcoRI sites of the pTRK935 integration vector and transformed into E. coli EC101. The resulting recombinant plasmids (pTRK1113-6) were confirmed by DNA sequencing and electroporated into L. acidophilus NCK1910 (Table 2) that contains the pTRK669 helper plasmid, and the recovery of the single- and double-crossover recombinants was performed as previously described. Recombinants carrying the new gene deletion alleles were isolated by colony PCR using primer pairs denoted up/down (e.g., LBA0225up/LBA0225down), which anneal to the flanking regions of the amplicons. Sequence integrity and in-frame deletions were verified by DNA sequencing employing the aforementioned primer pairs and primer denoted mid (e.g., LBA0225mid). The mutations were in-frame deletions of 90-96% of the coding regions.
To establish the functional significance of these two loci, single deletions of each PTS EII and P-Bgl gene, and a double deletion of both P-Bgl genes were constructed using the upp-based counter-selectable gene replacement system (Table 2) and the growth phenotypes of the mutant strains were analyzed (FIG. 3). Phenotypic growth analyses of deletion mutants of EII PTS transporters (FIGS. 3A, 3C, 3E, 3G, and 3I) and phospho-β-glucosidase (FIGS. 3B, 3D, 3F, 3H, and 3J) on the β-glucosides esculin, salicin, amygdalin and the disaccharides gentiobiose and cellobiose. The background Aupp strain is shown as a grey fill graph and the growth of the mutant strains is shown as: PTS EIIC (LBA0227, pink triangle), the phospho-β-glucosidase (LBA0225, light blue triangles), the PTS EIICBA (LBA0725, yellow squares), the second phospho-β-glucosidase (LBA0726, lilac squares) and the double phospho-β-glucosidase mutant (LBA0225/LBA0726, black stars). The color scheme is consistent with that used for the gene loci in FIG. 2.

NCK2424 (ΔLBA0726) = assay: Phenotypic growth analysis of deletion mutant (phospho-β-glucosidase); assay type: cell-based, Lactobacillus acidophilus; details: compared with background Δupp strain
Method: as §1
Construction of gene deletion mutants. The L. acidophilus NCFM genes LBA0225 and LBA0726, both encoding P-Bgl of glycoside hydrolase family 1 (GH1) enzymes in addition to the LBA0227 and LBA0725 genes encoding an EIIC and an EIICBA components of two PTS systems, respectively, were deleted using the upp-based counterselectable gene replacement system. Briefly, in-frame deletions were constructed by amplifying 650-750 bp of the up- and downstream flanking regions of the deletion targets with two primer pairs (e.g., LBA0225A/LBA0225B and LBA0225C/LBA0225D; Table 4). The resulting purified products were joined by splicing using overlap extension PCR (SOE-PCR63) and amplified to establish the deletion alleles. The SOE-PCR products, that include flanking restriction enzyme sites, were cloned within the BamHI and SacI/EcoRI sites of the pTRK935 integration vector and transformed into E. coli EC101. […]
(§3) To establish the functional significance of these two loci, single deletions of each PTS EII and P-Bgl gene, and a double deletion of both P-Bgl genes were constructed using the upp-based counter-selectable gene replacement system (Table 2) and the growth phenotypes of the mutant strains were analyzed (FIG. 3). […]

NCK2418 (ΔLBA0227) = assay: Phenotypic growth analysis of deletion mutant (PTS EIIC); assay type: cell-based, Lactobacillus acidophilus; details: compared with background Δupp strain
Method: as §1, §2, §3

L. acidophilus NCFM = assay: Growth of L. acidophilus NCFM on plant glycosides as single carbon source (OD600); assay type: cell-based, Lactobacillus acidophilus; details: SDM + 1% (w/v) carbohydrate (0.5% esculin), 37° C., 30 hours; corrected to medium without carbohydrate
Method: For initial growth and gene expression studies, L. acidophilus NCFM was propagated three times in semi-defined medium (SDM) supplemented with either 1% or 0,5% (w/v) of the plant glycoside or carbohydrate (Table 1). For the RNA-seq analysis, cells were harvested by centrifugation (3,220×10 min, 25° C.) in the mid-exponential phase (OD600=0.6-0.8) and stored at −80° C. for subsequent RNA isolation. For the mass spectrometry metabolite analyses, 200 μt samples were taken at 0, 3, 6, 9, 12, and 24 hours of growth; cells were removed by centrifugation; and supernatants were stored at −80° C. for further analysis.
as §1
The growth of L. acidophilus NCFM was evaluated on twelve chemically diverse, nutritionally relevant and/or therapeutically active PGs 1; Table 1). FIG. 1A provides the structures and common sources of plant glycoside substrates described herein. The compounds that support growth of Lactobacillus acidophilus are in green. RI: β-D-Glcp; R2: Gentiobioside (β-D-Glcp-(1,6)-D-Glcp); R3: Rutinoside (α-L-Rhaf-(1,6)-D-Glcp). The graph in FIG. 1B depicts plant glycoside utilization analyzed by mass spectrometry and the growth as the maximum OD600. Due to the low solubility of polydatin, OD600 cannot be used as a growth metric and utilization of this compound is confirmed by the production of lactate as well as a high utilization level based on the metabolite analysis.

L. acidophilus LA-1 = assay: Phenotypic growth assay (OD600); assay type: cell-based; details: SDM + 1% (w/v) carbohydrate (0.5% esculin), 37° C., 30 hours; corrected to medium without carbohydrate
Method: as §1

[1] = system: L. amyloverus ATCC 33620, DSM 20531; assay: Phenotypic growth assay (OD600); assay type: cell-based; details: SDM + 1% (w/v) carbohydrate (0.5% esculin), 37° C., 30 hours; corrected to medium without carbohydrate
Method: as §1

L. animalis DSM 20602 = assay: Phenotypic growth assay (OD600); assay type: cell-based; details: SDM + 1% (w/v) carbohydrate (0.5% esculin), 37° C., 30 hours; corrected to medium without carbohydrate
Method: as §1

[2] = system: L. crispatus ATCC 33820, DSM 20584; assay: Phenotypic growth assay (OD600); assay type: cell-based; details: SDM + 1% (w/v) carbohydrate (0.5% esculin), 37° C., 30 hours; corrected to medium without carbohydrate
Method: as §1

L. fermentum ATCC 14931 = assay: Phenotypic growth assay (OD600); assay type: cell-based; details: SDM + 1% (w/v) carbohydrate (0.5% esculin), 37° C., 30 hours; corrected to medium without carbohydrate
Method: as §1

L. gasseri ATCC 33323 = assay: Phenotypic growth assay (OD600); assay type: cell-based; details: SDM + 1% (w/v) carbohydrate (0.5% esculin), 37° C., 30 hours; corrected to medium without carbohydrate
Method: as §1

L. helveticus CNRZ32 = assay: Phenotypic growth assay (OD600); assay type: cell-based; details: SDM + 1% (w/v) carbohydrate (0.5% esculin), 37° C., 30 hours; corrected to medium without carbohydrate
Method: as §1

[3] = system: L. intestinalis Th4, ATCC 49335, DSM 6629; assay: Phenotypic growth assay (OD600); assay type: cell-based; details: SDM + 1% (w/v) carbohydrate (0.5% esculin), 37° C., 30 hours; corrected to medium without carbohydrate
Method: as §1

[4] = system: L. jensenii ATCC 25258, 62G, DSM 20557; assay: Phenotypic growth assay (OD600); assay type: cell-based; details: SDM + 1% (w/v) carbohydrate (0.5% esculin), 37° C., 30 hours; corrected to medium without carbohydrate
Method: as §1

L. johnsonii ATCC 33200 = assay: Phenotypic growth assay (OD600); assay type: cell-based; details: SDM + 1% (w/v) carbohydrate (0.5% esculin), 37° C., 30 hours; corrected to medium without carbohydrate
Method: as §1

[5] = system: L. plantarum sp. plantarum ATCC 14917, LA70; assay: Phenotypic growth assay (OD600); assay type: cell-based; details: SDM + 1% (w/v) carbohydrate (0.5% esculin), 37° C., 30 hours; corrected to medium without carbohydrate
Method: as §1

[6] = system: L. reuteri (ATCC 23272, DSM 20016); assay: Phenotypic growth assay (OD600); assay type: cell-based; details: SDM + 1% (w/v) carbohydrate (0.5% esculin), 37° C., 30 hours; corrected to medium without carbohydrate
Method: as §1

[7] = system: L. rhanmosus GG (ATCC 53103); assay: Phenotypic growth assay (OD600); assay type: cell-based; details: SDM + 1% (w/v) carbohydrate (0.5% esculin), 37° C., 30 hours; corrected to medium without carbohydrate
Method: as §1

Compound	reduction of growth on inactivation of the EIICBA (LBA0725) (NCK2422 (ΔLBA0725))	growth of the ΔLBA0725 mutant (inactive PTS EIICBA) (NCK2422 (ΔLBA0725))	growth of the ΔLBA0726 mutant (P-Bgl) (NCK2424 (ΔLBA0726))	growth of the ΔLBA0227 mutant (inactive EIIC) (NCK2418 (ΔLBA0227))	Growth (OD600 max class) of L. acidophilus NCFM (L. acidophilus NCFM)	Growth (OD600 max class) of L. acidophilus LA-1 (L. acidophilus LA-1)	Growth (OD600 max class) of L. amyloverus ATCC 33620, DSM 20531 [1]	Growth (OD600 max class) of L. animalis DSM 20602 (L. animalis DSM 20602)	Growth (OD600 max class) of L. crispatus ATCC 33820, DSM 20584 [2]	Growth (OD600 max class) of L. fermentum ATCC 14931 (L. fermentum ATCC 14931)	Growth (OD600 max class) of L. gasseri ATCC 33323 (L. gasseri ATCC 33323)	Growth (OD600 max class) of L. helveticus CNRZ32 (L. helveticus CNRZ32)	Growth (OD600 max class) of L. intestinalis Th4, ATCC 49335, DSM 6629 [3]	Growth (OD600 max class) of L. jensenii ATCC 25258, 62G, DSM 20557 [4]	Growth (OD600 max class) of L. johnsonii ATCC 33200 (L. johnsonii ATCC 33200)	Growth (OD600 max class) of L. plantarum sp. plantarum ATCC 14917, LA70 [5]	Growth (OD600 max class) of L. reuteri (ATCC 23272, DSM 20016) [6]	Growth (OD600 max class) of L. rhanmosus GG (ATCC 53103) [7]
gentiobiose [reference compound]	about 50%	moderately reduced	unaffected	abolished	–	–	–	–	–	–	–	–	–	–	–	–	–	–
O=C[C@H](O)[C@@H](O)[C@H](O[C@@H]1O[C@H](CO)[C@@H](O)[C@H](O)[C@H]1O)[C@H](O)CO [Cellobiose, reference compound]	about 50%	moderately reduced	unaffected	–	++ (“++” signifies 0.6 > OD600 max > 0.3.)	+++ (“+++” signifies OD600 max > 0.6.)	+++ (“+++” signifies OD600 max > 0.6.)	+ (“+” signifies 0.3 > OD600 max > 0.1.)	− (“−” signifies OD600 max < 0.1.)	− (“−” signifies OD600 max < 0.1.)	++ (“++” signifies 0.6 > OD600 max > 0.3.)	+ (“+” signifies 0.3 > OD600 max > 0.1.)	− (“−” signifies OD600 max < 0.1.)	++ (“++” signifies 0.6 > OD600 max > 0.3.)	+ (“+” signifies 0.3 > OD600 max > 0.1.)	+++ (“+++” signifies OD600 max > 0.6.)	− (“−” signifies OD600 max < 0.1.)	+++ (“+++” signifies OD600 max > 0.6.)
